Experimental data reported in US11584744B2 (UNIVERSITY OF WASHINGTON, priority 2017, dated 2023).
Converted amounts (≈) assume the structure as drawn. Where two headings read alike, the source gives them in different places.

Legend:
[1] = target: recombinant S. aureus MetRS enzyme (Staphylococcus aureus, UniProt A0A0H2XID2); assay: Inhibition of SaMetRS, ATP depletion assay; format: biochemical; details: read-out: (B) MetRS (S. aureus) IC50
Protocol: Production of recombinant S. aureus MetRSs. The SaMetRS gene (UniProtKB—A0A0H2XID2) was PCR amplified (Sense 5′-[…]-3′ (SEQ ID NO: 1) and Antisense 5′-[…]-3′ (SEQ ID NO:2)) from genomic DNA isolated from S. aureus (ATCC 29213) cultures. The PCR product was then cloned into the AVA0421 plasmid and sequence verified. The expression of recombinant protein was performed as previously described. The N-terminal 6-His fusion proteins were purified by nickel affinity chromatography followed by size exclusion gel chromatography (Superdex 75 26/60; GE Biosciences, Piscataway, N.J.).
Enzyme assays. Inhibition of SaMetRS was measured using the ATP depletion assay as previously described with some modifications. Compounds were pre-incubated for 15 minutes at room temperature in a 96-well plate with 400 μg/mL bulk E. coli tRNA, 25 nM SaMetRS, 0.1 U/mL pyrophosphatase, 0.2 mM spermine, 0.1 mg/mL bovine serum albumin, 2.5 mM dithiothreitol, 25 mM HEPES-KOH pH 7.9, 10 mM MgCl2, 50 mM KCl, and 2% DMSO. Reagents were purchased from Sigma-Aldrich or Roche. The reaction was started with the addition of 150 nM ATP and 20 μM L-methionine and after 120 minute incubation was stopped by the addition of an equal volume (50 μL) of Kinase-Glo® (Promega). Percent inhibition=100×(test compound−AVG low control)/(AVG high control−AVG low control) where the low control is all reagents except the compound and the high control is all reagents except the compounds and L-methionine. IC50 values were calculated by non-linear regression, sigmoidal-dose response, in Prism 3.0.

[2] = system: S. aureus MRSA (ATCC 33591); assay: MIC susceptibility testing; format: cell-based, Staphylococcus aureus; details: Staphylococcus aureus, MRSA ATCC33591; read-out: (G) MRSA (ATCC33591) MIC
In short: (§1)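 CLSI broth microdilution with two-fold compound dilutions, in triplicate; cells added in medium at 1×10^6 CFUs/mL, DMSO ≤0.5%. Media: MHB for S. aureus, CA-MHB for E. coli and E. faecium, CA-MHB plus 3% laked horse blood for S. pyogenes (5% CO2).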

[3] = system: S. aureus MSSA (ATCC 29213); assay: MIC susceptibility testing; format: cell-based, Staphylococcus aureus; details: Staphylococcus aureus, S. aureus ATCC 29213; read-out: (F) S. aureus (ATCC 29213) MIC
[4] = target: T1, MetRS (T. brucei) (Trypanosoma brucei brucei, UniProt Q38C91); assay: MetRS (T. brucei) enzyme inhibition; format: biochemical
T1 sequence (Q38C91 1-773): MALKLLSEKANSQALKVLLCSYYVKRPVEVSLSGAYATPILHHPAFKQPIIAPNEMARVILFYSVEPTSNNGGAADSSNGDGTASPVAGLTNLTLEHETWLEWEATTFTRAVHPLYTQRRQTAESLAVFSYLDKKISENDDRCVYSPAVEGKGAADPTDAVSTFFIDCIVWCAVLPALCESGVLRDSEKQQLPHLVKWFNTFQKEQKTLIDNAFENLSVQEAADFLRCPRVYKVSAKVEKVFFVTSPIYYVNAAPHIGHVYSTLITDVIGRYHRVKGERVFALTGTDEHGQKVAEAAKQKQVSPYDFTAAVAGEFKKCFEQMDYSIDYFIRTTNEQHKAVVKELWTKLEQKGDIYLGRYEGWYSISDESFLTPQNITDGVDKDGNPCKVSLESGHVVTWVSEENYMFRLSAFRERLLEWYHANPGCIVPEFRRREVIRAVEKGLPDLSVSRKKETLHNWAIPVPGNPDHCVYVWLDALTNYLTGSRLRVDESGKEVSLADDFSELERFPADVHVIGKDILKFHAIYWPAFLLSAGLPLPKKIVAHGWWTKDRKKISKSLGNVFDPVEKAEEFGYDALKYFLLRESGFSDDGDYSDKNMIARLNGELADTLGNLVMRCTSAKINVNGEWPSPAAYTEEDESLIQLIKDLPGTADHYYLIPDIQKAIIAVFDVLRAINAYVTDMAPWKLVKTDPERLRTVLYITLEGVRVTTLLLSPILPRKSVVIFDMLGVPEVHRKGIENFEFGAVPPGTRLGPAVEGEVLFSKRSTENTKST

[5] = target: MetRS (C. parvum) (Cryptosporidium parvum, UniProt Q5CVN0); assay: MetRS (C. parvum) enzyme inhibition; format: biochemical; details: read-out: (C) MetRS (C. parvum) IC50
[6] = system: T. brucei; assay: T. brucei growth inhibition; format: cell-based, Trypanosoma brucei; details: Trypanosoma brucei; read-out: (D) T. brucei EC50
[7] = system: C. parvum; assay: C. parvum growth inhibition; format: cell-based, Cryptosporidium parvum; details: read-out: (J) C. parvum EC50
[8] = system: T. cruzi; assay: T. cruzi growth inhibition; format: cell-based, Trypanosoma cruzi; details: read-out: (E) T. cruzi EC50
[9] = system: E. faecium VRE (ATCC 51559); assay: MIC susceptibility testing; format: cell-based, Enterococcus faecium; details: Enterococcus faecium, E. faecium ATCC 51559; read-out: (I) E. faecium (ATCC 51559) MIC
In short: as §1

Sequence of recombinant S. aureus MetRS enzyme (A0A0H2XID2 2-657): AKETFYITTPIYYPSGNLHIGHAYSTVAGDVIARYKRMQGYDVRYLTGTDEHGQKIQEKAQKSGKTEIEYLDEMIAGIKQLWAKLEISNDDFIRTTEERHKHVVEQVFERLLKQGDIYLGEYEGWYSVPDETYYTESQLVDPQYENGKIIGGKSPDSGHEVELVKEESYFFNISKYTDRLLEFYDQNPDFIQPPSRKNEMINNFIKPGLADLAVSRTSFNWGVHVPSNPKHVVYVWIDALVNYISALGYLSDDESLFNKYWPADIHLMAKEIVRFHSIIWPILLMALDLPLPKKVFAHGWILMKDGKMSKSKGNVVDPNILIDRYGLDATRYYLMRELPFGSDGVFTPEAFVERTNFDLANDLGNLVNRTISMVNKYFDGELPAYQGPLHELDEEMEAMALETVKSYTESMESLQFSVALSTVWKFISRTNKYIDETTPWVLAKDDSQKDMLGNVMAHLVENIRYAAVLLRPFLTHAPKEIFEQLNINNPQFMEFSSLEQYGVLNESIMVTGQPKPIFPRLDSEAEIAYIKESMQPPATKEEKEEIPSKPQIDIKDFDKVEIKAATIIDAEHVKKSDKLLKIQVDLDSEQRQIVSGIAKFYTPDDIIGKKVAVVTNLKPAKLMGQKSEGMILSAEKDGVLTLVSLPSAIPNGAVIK
Sequence of MetRS (C. parvum) (Q5CVN0 entry or part of it): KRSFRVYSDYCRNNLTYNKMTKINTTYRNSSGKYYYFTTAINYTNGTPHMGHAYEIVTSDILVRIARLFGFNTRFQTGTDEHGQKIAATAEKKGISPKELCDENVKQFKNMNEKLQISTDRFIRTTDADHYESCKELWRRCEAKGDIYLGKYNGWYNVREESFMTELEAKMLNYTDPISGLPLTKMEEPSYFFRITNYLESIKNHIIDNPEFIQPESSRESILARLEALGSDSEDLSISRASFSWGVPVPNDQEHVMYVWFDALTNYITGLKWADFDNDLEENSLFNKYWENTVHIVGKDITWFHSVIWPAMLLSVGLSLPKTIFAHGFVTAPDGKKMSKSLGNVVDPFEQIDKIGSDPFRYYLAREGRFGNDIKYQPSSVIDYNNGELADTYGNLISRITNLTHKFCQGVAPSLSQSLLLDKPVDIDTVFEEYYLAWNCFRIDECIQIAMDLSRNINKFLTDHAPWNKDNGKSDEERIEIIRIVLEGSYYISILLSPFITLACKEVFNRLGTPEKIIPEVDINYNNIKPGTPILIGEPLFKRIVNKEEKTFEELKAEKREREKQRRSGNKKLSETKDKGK

Compound | IC50 [1] | MIC [2] | MIC [3] | IC50 [4] | IC50 [5] | EC50 [6] | EC50 ([7]; Cryptosporidium parvum) | EC50 ([8]; Trypanosoma cruzi) | EC50 [8] | MIC [9] | EC50 [7]
O=c1n(Cc2nc3nc(F)ccc3[nH]2)cc(Cc2ccc(Cl)cc2Cl)n1CC(F)F [Compound 2139, 4-[(2,4-dichlorophenyl)methyl]-3-(2,2-difluoroethyl)-1-({5-fluoro-1H-imidazo[4,5-b]pyridin-2-yl}methyl)-2,3-dihydro-1H-imidazol-2-one] | < 25 nM | 0.307 µg/mL (≈ 0.673 µM) | 0.0776 µg/mL (≈ 0.17 µM) | < 40 nM | < 40 nM | 3.21 nM | 193 nM |  |  |  | 
COc1cc(-c2cccc3nc(Cc4nc5nc(F)ccc5[nH]4)cn23)c(Cl)cc1Cl [Compound 2129, 5-(2,4-dichloro-5-methoxyphenyl)-2-({5-fluoro-1H-imidazo[4,5-b]pyridin-2-yl}methyl)imidazo[1,2-a]pyridine] | < 25 nM |  |  | < 40 nM | < 40 nM |  |  | 102 nM | 82 nM |  | 
COc1ccc(-c2cccc3nc(Cc4nc5nc(C(F)(F)F)ccc5[nH]4)cn23)c(Cl)c1 [Compound 2166, 5-(2-chloro-4-methoxyphenyl)-2-{[5-(trifluoromethyl)-1H-imidazo[4,5-b]pyridin-2-yl]methyl}imidazo[1,2-a]pyridine] | 177 nM |  | > 1.25 µg/mL | < 40 nM | > 1000 nM | > 200 nM |  | 596 nM |  | > 2.5 µg/mL | 
CCn1c(Cc2ccc(Cl)cc2Cl)cn(Cc2nc3ccc(Br)nc3[nH]2)c1=O [Compound 2091, 1-({5-bromo-1H-imidazo[4,5-b]pyridin-2-yl}methyl)-4-[(2,4-dichlorophenyl)-methyl]-3-ethyl-2,3-dihydro-1H-imidazol-2-one] | < 25 nM | > 2.5 µg/mL | 0.199 µg/mL (≈ 0.414 µM) | < 40 nM | < 40 nM | 2.8 nM | 598 nM | 59 nM | 40.6 nM |  | 
CS(=O)(=O)c1nc(Cc2ccc(Cl)cc2Cl)cn1Cc1nc2nc(Cl)ccc2[nH]1 [Compound 2111, 1-({5-chloro-1H-imidazo[4,5-b]pyridin-2-yl}methyl)-4-[(2,4-dichlorophenyl)methyl]-2-methanesulfonyl-1H-imidazole] | < 25 nM |  | 1.25 µg/mL (≈ 2.66 µM) | < 40 nM | 146 nM | 54.6 nM |  | 445 nM |  |  | 
COCCn1c(Cc2ccc(Cl)cc2Cl)cn(Cc2nc3ccc(F)nc3[nH]2)c1=O [Compound 2077, 4-[(2,4-dichlorophenyl)methyl]-1-({5-fluoro-1H-imidazo[4,5-b]pyridin-2-yl}methyl)-3-(2-methoxyethyl)-2,3-dihydro-1H-imidazol-2-one] | < 25 nM | > 2.5 µg/mL | 0.818 µg/mL (≈ 1.82 µM) | < 40 nM | < 40 nM |  | 475 nM | 215 nM |  |  | 283 nM
O=c1n(Cc2nc3ccc(F)nc3[nH]2)cc(Cc2ccc(Cl)cc2Cl)n1CC1CCOCC1 [Compound 2087, 4-[(2,4-dichlorophenyl)methyl]-1-({5-fluoro-1H-imidazo[4,5-b]pyridin-2-yl}methyl)-3-[(oxan-4-yl)methyl]-2,3-dihydro-1H-imidazol-2-one] | < 25 nM | 1.67 µg/mL (≈ 3.41 µM) | 0.254 µg/mL (≈ 0.518 µM) | < 40 nM | < 40 nM |  |  | 359 nM |  |  | 
